The results in this text go back to US20210205292A1, “INHIBITORS OF CREB-CBP INTERACTION FOR TREATMENT OF LEUKEMIA” (The Board of Trustees of the Leland Stanford Junior …, priority 2016, published 2021).

In experiment [1] the test system is HL-60 cells. The experiment can be described thus: Flow cytometry of apoptosis (c-PARP+, aqua amine+) in HL-60 cells. Type of experiment: cell-based, human. To be noted: 50 to 200 nM, 72 hours. The method, then: AML cell lines were purchased from ATCC and maintained with IMDM (Gibco) supplemented with 10% FBS (Fisher Scientific) and 1% PSG (Gibco). Cells were plated at a density of 2-4×10^5 cells/ml, and treated with various doses of Compound A in 0.1% DMSO or 0.1% DMSO alone. Cell counts and viability were determined using the Vi-CELL XR Cell Viability Analyzer (Beckman Coulter). HL-60 and KG-1 cells overexpressing CREB or CBP were generated using lentiviral gene delivery with subsequent puromycin selection and FACs sorting for GFP. CREB knockdown was achieved by infecting cells with a lentivirus expressing the shRNA sequence 5′-[…]-3′ (SEQ ID NO:). For chemotherapy combination experiments, combination index values were calculated using median effects analysis on Calcusyn software. Human patient bone marrow samples were cultured in DMEM plus 20% FBS and 1×PSG, supplemented with recombinant GM-CSF (20 ng/ml), G-CSF (20 ng/ml), SCF (50 ng/ml), IL-3 (20 ng/ml), and IL-6 (10 ng/ml). Cells were plated at a concentration of 1×10^5 cells/ml in a 12-well plate. Vehicle (0.1% DMSO) or Compound A (2 μM) was added for up to 72 hours. All samples contained >85% AML blasts and were not sorted prior to performing experiments. […] Single cell suspensions of bone marrow culture were subsequently analyzed on a D×P10 flow cytometer (Cytek). […]
(In flow cytometry, cells or beads pass a laser one at a time.)

For experiment [2], the system named is HL-60 cells. As to the kind of experiment: HL-60 cell viability, Trypan blue exclusion assay. It is filed as cell-based, human. The following applies: 50 nM, 48 hours. From the text:
FIG. 11, panels A-D, illustrates ABT-737 Causes Apoptosis in HL-60 Cells; CyTOF Gating Scheme. […] Panel D) CyTOF gating scheme, used to perform analysis specifically on AML cells within AML patient marrow samples.

For experiment [3], the system named is CREB-driven promoter (CRE). The experiment can be described thus: CREB-driven (CRE) luciferase reporter in KG-1 cells. Type of experiment: cell-based. The following applies: KG-1 cells, 6 hours; 3, 10 and 30 μM. The method, then:
(§1) KG-1 cell lines were created to express luciferase in a CREB-dependent or non-CREB-dependent fashion using lentiviral gene delivery. Cells were sorted for mCherry expression by flow cytometry and selected with puromycin. Luciferase activity was measured on a […] using the Promega Luciferase Activity Kit (Promega) per manufacturer's instructions following six hours of treatment with Compound A or 0.1% DMSO. The split Renilla luciferase complementation assay has been described previously (Li BX, and Xiao X. Discovery of a small-molecule inhibitor of the KIX-KID interaction. Chembiochem: a European journal of chemical biology. 2009; 10(17):2721-4). In this assay, the KID and KIX domains were fused to the N- and C-terminal regions of Renilla luciferase, respectively. Once KIX binds phosphorylated KID, the Renilla luciferase regions were brought together, resulting in luciferase activity.
(§2) To test the ability of Compound A to disrupt CREB-CBP binding in cells, a split Renilla luciferase complementation assay was performed. […] This early timepoint was selected to permit accurate reporter gene activity measurement prior to the onset of anticipated global cell dysfunction or death induced by Compound A. Treatment with 3 μM Compound A reduced luciferase activity by 33.2±7.7% at this timepoint. […] Thus, Compound A inhibits CREB function through disruption of CREB:CBP interaction.
For orientation: A reporter such as luciferase makes a cellular process visible.

A further experiment deals with CMV-driven promoter. The experiment can be described thus: CMV-driven luciferase reporter in KG-1 cells. It is filed as cell-based. The following applies: 6 hours. As to the method:
as §1, §2

The test system of a further experiment is KG-1 cells. As to the kind of experiment: Viable cell count of engineered KG-1 cell lines (CREB KD, GFP, CREB OE, CBP OE). It is filed as cell-based. To be noted: same four KG-1 cell lines, 30 μM. The method, then: AML cell lines were purchased from ATCC and maintained with IMDM (Gibco) supplemented with 10% FBS (Fisher Scientific) and 1% PSG (Gibco). Cells were plated at a density of 2-4×10^5 cells/ml, and treated with various doses of Compound A in 0.1% DMSO or 0.1% DMSO alone. Cell counts and viability were determined using the Vi-CELL XR Cell Viability Analyzer (Beckman Coulter). HL-60 and KG-1 cells overexpressing CREB or CBP were generated using lentiviral gene delivery with subsequent puromycin selection and FACs sorting for GFP. CREB knockdown was achieved by infecting cells with a lentivirus expressing the shRNA sequence 5′-[…]-3′ (SEQ ID NO:). For chemotherapy combination experiments, combination index values were calculated using median effects analysis on Calcusyn software. Human patient bone marrow samples were cultured in DMEM plus 20% FBS and 1×PSG, supplemented with recombinant GM-CSF (20 ng/ml), G-CSF (20 ng/ml), SCF (50 ng/ml), IL-3 (20 ng/ml), and IL-6 (10 ng/ml). Cells were plated at a concentration of 1×10^5 cells/ml in a 12-well plate. Vehicle (0.1% DMSO) or Compound A (2 μM) was added for up to 72 hours. All samples contained >85% AML blasts and were not sorted prior to performing experiments. Immunostaining and flow cytometry analyses were performed according to standard procedures. All antibodies were purchased from BD Biosciences. Single cell suspensions of bone marrow culture were subsequently analyzed on a D×P10 flow cytometer (Cytek). Bone marrow from AML patients were collected through voluntary patient participation at University of California, Los Angeles (Los Angeles, Calif., USA) and Stanford University (Palo Alto, Calif., USA) in compliance with the Institutional Review Board regulations of each institution.
To test the effects of CREB inhibition on AML cells, four AML cell lines were treated with doses of Compound A ranging from 100 pM to 10 μM for 48 hours. […] KG-1 cells were less sensitive to Compound A and expressed lower levels of CREB compared to HL-60 cells (FIG. 2, panel A). CREB was overexpressed to determine whether sensitivity of KG-1 cells to Compound A could be increased. KG-1 cell lines in which CREB or CBP was overexpressed, or CREB was knocked down by shRNA, were generated (FIG. 2C). A KG-1 cell line expressing only GFP was used as a control. These cell lines were treated with a range of Compound A concentrations for 48 hours (FIG. 2D). Experiments were also performed to examine the efficacy of combining Compound A with cytarabine or daunorubicin, standard drugs used in AML therapy.

Entries after “also recorded” stand apart in the source; their conditions may differ.

Take `CN(C)CC[C@H](CSc1ccccc1)Nc1ccc(S(=O)(=O)NC(=O)c2ccc(N3CCN(Cc4ccccc4-c4ccc(Cl)cc4)CC3)cc2)cc1[N+](=O)[O-]` [ABT-737, reference compound]: the apoptosis result in the experiment on HL-60 cells [1] was “Apoptosis was induced”. The cell viability result in the experiment on HL-60 cells [2] is listed as “reduced cell viability”.

As for “N-methyl-(4-chlorophenyl)-3-hydroxy-naphthamide [Analog B, reference compound]”, the CREB-driven luciferase activity entry in experiment [3] is given as “No statistical difference; also recorded: no significant effect”. Besides, the CMV-driven luciferase expression result in the experiment with CMV-driven promoter is reported as “No statistical difference; also recorded: no significant effect”. Further, the “viability or proliferation rate” value in the experiment with KG-1 cells is on record as “no reduction in viability or proliferation rate”.
